Source: patent US5094723A, “Separation of m-xylene from p-xylene or o-xylene by extractive distillation with alcohols” (priority 1991, dated 1992)

Columns and labels:
Type in all cases: physicochemical
[1] = Relative volatility, separation of p-xylene from m-xylene, vapor-liquid equilibrium still; details: for effectiveness in bringing m-xylene out as the overhead from p-xylene: alcohols; for Relative Volatility: vapor-liquid equilibrium still
From the text: The data in Table 5 was obtained in a vapor-liquid equilibrium still.
Twenty grams of m-xylene, 60 grams of p-xylene, 30 grams of cyclododecanol and 15 grams of benzyl alcohol were charged to the vapor-liquid equilibrium still and refluxed for five hours.
Twenty grams of m-xylene, 60 grams of p-xylene, 30 grams of cyclododecanol and 15 grams of diisobutyl carbinol were charged to the vapor-liquid equilibrium still and refluxed for four hours.

[2] = Relative volatility, separation of m-xylene from o-xylene, vapor-liquid equilibrium still; details: for effectiveness in separation of m-xylene from o-xylene: in words
Experimental: The data in Table 2 was obtained in a vapor-liquid equilibrium still.
Ten grams of m-xylene, 30 grams of o-xylene and 20 grams of cyclododecanol were charged to a vapor-liquid equilibrium still and refluxed for three hours.
Ten grams of m-xylene, 30 grams of o-xylene, 20 grams of cyclododecanol and ten grams of diisobutyl carbinol were charged to the vapor-liquid equilibrium still and refluxed for 14 hours.

[3] = Extractive distillation run in glass perforated plate rectification column, m-xylene from o-xylene; details: for Relative Volatility: m-xylene from o-xylene, 7.3 theoretical plates, Fenske equation
Experimental: It yielded a relative volatility of 1.31 after one hour and 1.37 after two hours of continuous operation.
225 grams of m-xylene and 75 grams of o-xylene were placed in the stillpot of a glass perforated plate rectification column containing 7.3 theoretical plates, and heated. When refluxing began, an extractive agent comprising cyclododecanol was pumped into the column at a rate of 15 ml/min. The temperature of the extractive agent as it entered the column was 95° C. After establishing the feed rate of the extractive agent, the heat input to the column was adjusted to give a total reflux rate of 40 ml/min. After one hour of operation, overhead and bottoms samples of approximately two ml. were collected and analysed by gas chromatography. The overhead analysis was 95.5% m-xylene, 4.5% o-xylene and the bottoms analysis was 75% m-xylene, 25% o-xylene. Using these compositions in the Fenske equation, with the number of theoretical plates in the column being 7.3, gave an average relative volatility of 1.31 for each theoretical plate. After a total of two hours of continuous operation, samples of overhead and bottoms were again taken and analysed. The overhead analysis was 96.5% m-xylene, 3.5% o-xylene; the bottoms analysis was 73.6% m-xylene, 26.4% o-xylene which is a relative volatility of 1.37.

[4] = * brings the m-xylene out as overhead (m-xylene to p-xylene)
[5] = m-xylene to o-xylene, effective agents (alone or mixed as labelled), vapor-liquid equilibrium still
[6] = p-xylene from m-xylene, in words
[7] = m-xylene from o-xylene, ineffective agents when mixed with cyclododecanol

CCCCCCCCCCO [1-Decanol]
effectiveness in bringing m-xylene out as the overhead from p-xylene ([1]; in words): effective in bringing m-xylene out as the overhead | effectiveness in separation of m-xylene from o-xylene ([2]; alcohols): effective

CCCCCCCCCCCCO [1-Dodecanol]
Relative Volatility [1, 4]: 1.11 | effectiveness in bringing m-xylene out as the overhead from p-xylene ([1]; in words): effective in bringing m-xylene out as the overhead | effectiveness in separation of m-xylene from o-xylene ([2]; alcohols): effective | Relative Volatility [2, 5]: 1.31

CCCCCCCCCO [1-Nonanol]
Relative Volatility [1, 4]: 1.14 | effectiveness in bringing m-xylene out as the overhead from p-xylene ([1]; in words): effective in bringing m-xylene out as the overhead | effectiveness in separation of m-xylene from o-xylene ([2]; alcohols): effective

CCCCCCCCO [1-Octanol]
enhancement of relative volatility when mixed with cyclododecanol [1, 6]: enhance the relative volatility | effectiveness in separation of m-xylene from o-xylene ([2]; alcohols): effective | Relative Volatility [2, 5]: 1.38

CCCCC(CC)COC(C)=O (stereo not drawn) [2-Ethyl hexyl acetate]
Relative Volatility [2, 7]: 1.22

CCCCC(CC)CO (stereo not drawn) [2-Ethyl-1-hexanol]
Relative Volatility [2, 7]: 1.29

Cc1ccccc1[N+](=O)[O-] [2-Nitrotouene]
Relative Volatility [2, 7]: 1.25

CCCCCCC(C)O (stereo not drawn) [2-Octanol]
effectiveness in separation of m-xylene from o-xylene ([2]; alcohols): effective | Relative Volatility [2, 5]: 1.30

OCc1ccccc1 [Benzyl alcohol]
Relative Volatility [1, 4]: 1.19 | effectiveness in bringing m-xylene out as the overhead from p-xylene ([1]; in words): effective in bringing m-xylene out as the overhead | enhancement of relative volatility when mixed with cyclododecanol [1, 6]: enhance the relative volatility

O=C(OCc1ccccc1)c1ccccc1 [Benzyl benzoate]
Relative Volatility [2, 7]: 1.0

CCCCOC(=O)CCC [Butyl butyrate]
Relative Volatility [2]: 1.26

OC1CCCCCCCCCCC1 [Cyclododecanol]
xylene brought out as overhead product [1, 6]: brings out the p-xylene as overhead product | Relative Volatility ([1]; p-xylene to m-xylene (no asterisk)): 1.11 | effectiveness in separation of m-xylene from o-xylene ([2]; alcohols): effective | Relative Volatility [2, 5]: 1.37 | liquid composition, m-xylene ([2]; vapor-liquid equilibrium still): 23.6% | liquid composition, o-xylene ([2]; vapor-liquid equilibrium still): 76.4% | vapor composition, m-xylene ([2]; vapor-liquid equilibrium still): 29.8% | vapor composition, o-xylene ([2]; vapor-liquid equilibrium still): 70.2% | Weight % m-Xylene ([3]; bottoms, 1 hour): 75% | Weight % o-Xylene ([3]; bottoms, 1 hour): 25% | Weight % m-Xylene ([3]; bottoms, 2 hours): 73.6% | Weight % o-Xylene ([3]; bottoms, 2 hours): 26.4% | Relative Volatility ([3]; 1 hour): 1.31 | Relative Volatility ([3]; 2 hours): 1.37 | Weight % m-Xylene ([3]; overhead, 1 hour): 95.5% | Weight % o-Xylene ([3]; overhead, 1 hour): 4.5% | Weight % m-Xylene ([3]; overhead, 2 hours): 96.5% | Weight % o-Xylene ([3]; overhead, 2 hours): 3.5%

CCOC(=O)CC(=O)OCC [Diethyl malonate]
Relative Volatility [2, 7]: 1.23

CCCCCCOCCOCCO [Diethylene glycol hexyl ether]
Relative Volatility [2, 7]: 0.7

CC(C)CC(O)CC(C)C [Diisobutyl carbinol]
Relative Volatility [1, 4]: 1.23 | effectiveness in bringing m-xylene out as the overhead from p-xylene ([1]; in words): effective in bringing m-xylene out as the overhead | enhancement of relative volatility when mixed with cyclododecanol [1, 6]: enhance the relative volatility | effectiveness in separation of m-xylene from o-xylene ([2]; alcohols): effective | Relative Volatility [2, 5]: 1.27

CCCCOCCOC(C)=O [Ethylene glycol butyl ether acetate]
enhancement of relative volatility when mixed with cyclododecanol [1, 6]: enhance the relative volatility | Relative Volatility [2, 7]: 1.1

CC(C)CCCCCCCO [Isodecanol (ASHLAND), Isodecanol]
Relative Volatility [2, 5]: 1.27

CC(C)CCCCCCCO [Isodecanol (EXXON), Isodecanol]
Relative Volatility [2, 5]: 1.18

CC(C)CCCCCCCO [Isodecanol]
effectiveness in bringing m-xylene out as the overhead from p-xylene ([1]; in words): effective in bringing m-xylene out as the overhead | effectiveness in separation of m-xylene from o-xylene ([2]; alcohols): effective

CC(C)CCCCCCO [Isononyl alcohol (EXXON), Isononyl alcohol]
effectiveness in separation of m-xylene from o-xylene ([2]; alcohols): effective | Relative Volatility [2, 5]: 1.22

CC(C)CCCCCO [Isooctanol (U.C.), Isooctanol]
Relative Volatility [2, 5]: 1.27

COC(=O)c1ccccc1 [Methyl benzoate]
Relative Volatility [2, 7]: 1.0

OCCc1ccccc1 [Phenethyl alcohol]
enhancement of relative volatility when mixed with cyclododecanol [1, 6]: enhance the relative volatility | Relative Volatility [2, 7]: 1.29

CCC(=O)c1ccccc1 [Propiophenone]
enhancement of relative volatility when mixed with cyclododecanol [1, 6]: enhance the relative volatility | Relative Volatility [2, 7]: 0.8

CC1COC(=O)O1 (stereo not drawn) [Propylene carbonate]
Relative Volatility [2, 7]: 1.07

CCCCCCCCCCCO [Undecyl alcohol]
Relative Volatility [1, 4]: 1.14 | effectiveness in bringing m-xylene out as the overhead from p-xylene ([1]; in words): effective in bringing m-xylene out as the overhead | effectiveness in separation of m-xylene from o-xylene ([2]; alcohols): effective | Relative Volatility [2, 5]: 1.40

CC(=O)c1ccccc1 [acetophenone]
effectiveness in separation of m-xylene from o-xylene ([2]; mixed with cyclododecanol): effective relative volatilities | effectiveness in separation of m-xylene from o-xylene ([2]; used alone): relatively ineffective

CCCCOCCOCCO [diethylene glycol butyl ether]
enhancement of relative volatility when mixed with cyclododecanol [1, 6]: enhance the relative volatility | effectiveness in separation of m-xylene from o-xylene ([2]; mixed with cyclododecanol): effective relative volatilities | effectiveness in separation of m-xylene from o-xylene ([2]; used alone): relatively ineffective

CCOCCOCCO [diethylene glycol ethyl ether]
effectiveness in separation of m-xylene from o-xylene ([2]; mixed with cyclododecanol): effective relative volatilities | effectiveness in separation of m-xylene from o-xylene ([2]; used alone): relatively ineffective

CN(C)C=O [dimethylformamide]
enhancement of relative volatility when mixed with cyclododecanol [1, 6]: enhance the relative volatility

C[S+](C)[O-] [dimethylsulfoxide]
enhancement of relative volatility when mixed with cyclododecanol [1, 6]: enhance the relative volatility | effectiveness in separation of m-xylene from o-xylene ([2]; mixed with cyclododecanol): effective relative volatilities | effectiveness in separation of m-xylene from o-xylene ([2]; used alone): relatively ineffective

CCOC(=O)c1ccccc1O [ethyl salicylate]
effectiveness in separation of m-xylene from o-xylene ([2]; mixed with cyclododecanol): effective relative volatilities | effectiveness in separation of m-xylene from o-xylene ([2]; used alone): relatively ineffective

CC(C)CCCCCO [isooctanol]
effectiveness in separation of m-xylene from o-xylene ([2]; alcohols): effective

COC(=O)c1ccccc1O [methyl salicylate]
effectiveness in separation of m-xylene from o-xylene ([2]; mixed with cyclododecanol): effective relative volatilities | effectiveness in separation of m-xylene from o-xylene ([2]; used alone): relatively ineffective

CC(=O)Oc1ccccc1 [phenyl acetate]
effectiveness in separation of m-xylene from o-xylene ([2]; mixed with cyclododecanol): effective relative volatilities | effectiveness in separation of m-xylene from o-xylene ([2]; used alone): relatively ineffective

O=S1(=O)CCCC1 [sulfolane]
effectiveness in separation of m-xylene from o-xylene ([2]; mixed with cyclododecanol): effective relative volatilities | effectiveness in separation of m-xylene from o-xylene ([2]; used alone): relatively ineffective

OCC1CCCO1 (stereo not drawn) [tetrahydrofurfuryl alcohol]
enhancement of relative volatility when mixed with cyclododecanol [1, 6]: enhance the relative volatility
